# Tested on: multidrug-resistant (MDR) strains of Mycobacterium tuberculosis
# Experiment: microbe, parasite or virus in culture
# Type: cell-based
# Conditions: 192 h, read-out: MIC MDR-TB
row,Compound,MIC
1,"COc1ccc(Cl)cc1-n1ncc(-c2nnc(-c3ccc(Cl)cc3)o2)c1C [Compound 7a, 2-(1-(5-Chloro-2-methoxyphenyl)-5-methyl-1H-pyrazol-4-yl)-5-(4-chlorophenyl)-1,3,4-oxadiazole]",16 mg/L
2,"COc1ccc(Cl)cc1-n1ncc(-c2nnc(-c3ccc(F)cc3)o2)c1C [Compound 7b, 2-(1-(5-Chloro-2-methoxyphenyl)-5-methyl-1H-pyrazol-4-yl)-5-(4-fluorophenyl)-1,3,4-oxadiazole]",8 mg/L
3,"COc1ccc(Cl)cc1-n1ncc(-c2nnc(-c3ccc(C)c(Br)c3)o2)c1C [Compound 7c, 2-(3-Bromo-4-methylphenyl)-5-(1-(5-chloro-2-methoxyphenyl)-5-methyl-1H-pyrazol-4-yl)-1,3,4-oxadiazole]",64 mg/L
4,"COc1ccc(Cl)cc1-n1ncc(-c2nnc(-c3ccccc3)o2)c1C [Compound 7d, 2-(1-(5-Chloro-2-methoxyphenyl)-5-methyl-1H-pyrazol-4-yl)-5-phenyl-1,3,4-oxadiazole]",32 mg/L
5,"COc1ccc(Cl)cc1-n1ncc(-c2nnc(-c3ccc(Br)cc3)o2)c1C [Compound 7e, 2-(4-Bromophenyl)-5-(1-(5-chloro-2-methoxyphenyl)-5-methyl-1H-pyrazol-4-yl)-1,3,4-oxadiazole]",16 mg/L
6,"COc1ccc(Cl)cc1-n1ncc(-c2nnc(-c3ccc(Br)c(C)c3)o2)c1C [Compound 7f, 2-(4-Bromo-3-methylphenyl)-5-(1-(5-chloro-2-methoxyphenyl)-5-methyl-1H-pyrazol-4-yl)-1,3,4-oxadiazole]",64 mg/L
7,"COc1ccc(Cl)cc1-n1ncc(-c2nnc(-c3cccc(F)c3)o2)c1C [Compound 7g, 2-(1-(5-Chloro-2-methoxyphenyl)-5-methyl-1H-pyrazol-4-yl)-5-(3-fluorophenyl)-1,3,4-oxadiazole]",32 mg/L
8,"COc1ccc(Cl)cc1-n1ncc(-c2nnc(-c3cc(Cl)cc(Cl)c3)o2)c1C [Compound 7h, 2-(1-(5-Chloro-2-methoxyphenyl)-5-methyl-1H-pyrazol-4-yl)-5-(3,5-dichlorophenyl)-1,3,4-oxadiazole]",16 mg/L
9,"COc1ccc(Cl)cc1-n1ncc(-c2nnc(-c3ccc(Cl)c(Cl)c3)o2)c1C [Compound 7i, 2-(1-(5-Chloro-2-methoxyphenyl)-5-methyl-1H-pyrazol-4-yl)-5-(3,4-dichlorophenyl)-1,3,4-oxadiazole]",32 mg/L
10,"COc1ccc(Cl)cc1-n1ncc(-c2nnc(-c3ccc(C)c([N+](=O)[O-])c3)o2)c1C [Compound 7j, 2-(1-(5-Chloro-2-methoxyphenyl)-5-methyl-1H-pyrazol-4-yl)-5-(4-methyl-3-nitrophenyl)-1,3,4-oxadiazole]",64 mg/L

# From patent US11998532B1 (priority 2023, dated 2024)
